The series can be described thus: Human HepG2 cell viability assay in 384 well format. It is filed as toxicity, cell-based. Further details: dose 125 nL, time 70.5 hour; cytotoxicity at 70.5 h: concentration not given beside the values. The conditions noted are these: HepG2 cells, read-out: Inhibition.

With `O=C1CC(N2CCN(c3ccc(O)cc3)CC2)C(=O)N1Cc1cccs1` (stereo not given), the cytotoxicity at 70.5 h was -7.69%.

As to `O=c1c2c(ncn1CCO)nc1n2CCC1`, the cytotoxicity at 70.5 h was -5.61%.

With `O=C1CC(N2CCN(c3ccc(F)cc3)CC2)C(=O)N1Cc1cccs1` (stereo not given), the cytotoxicity at 70.5 h is -12.3%.

Regarding `CCN1C[C@H]2CCN(c3ncccn3)CC[C@H]2S1(=O)=O`, the cytotoxicity at 70.5 h was found to be 1.89%.

In the case of `O=C(c1ccco1)N1CCCC2(CN(Cc3ccoc3)CCO2)C1` (stereo not given), the cytotoxicity at 70.5 h is -0.421%.

With `O=C([C@H]1COC[C@H]2CN(C3CCOCC3)C[C@H]21)N1CCCCO1`, the cytotoxicity at 70.5 h amounted to 4.24%.

On to `O=C(NCC1CC1)C1CN(C(=O)Cc2cccs2)CC12CCOCC2` (stereo not given), for which the cytotoxicity at 70.5 h was 1.89%.

Take `CCOCC1CN(C(=O)c2cccs2)Cc2nn(C)cc21` (stereo not given): the cytotoxicity at 70.5 h is -2.33%.

With `Cc1cnc(C(=O)N2C[C@H]3CCCC(OCc4cccnc4)[C@H]3C2)cn1` (stereo not given in full), the cytotoxicity at 70.5 h is -3.45%.

For `COCc1cnc2n1CCN(C(=O)C1=CCCCC1)C2C` (stereo not given), the cytotoxicity at 70.5 h is 17.6%.

For `COc1ncccc1C(=O)N1CC[C@H]2C[C@@H](C)O[C@@H]2C1`, the cytotoxicity at 70.5 h is -21.5%.

Take `O=C1CCC2(CCN(c3ncc(F)cn3)CC2)N1CCN1CCCC1`: the cytotoxicity at 70.5 h amounted to 25.9%.

For `O=C1NC2(CCN(C(=O)Cc3ccsc3)CC2)CC1c1ccncc1` (stereo not given), the cytotoxicity at 70.5 h was -4.21%.

In the case of `CN(C)C(=O)NC1COC2(CCN(Cc3nccn3C)CC2)C1` (stereo not given), the cytotoxicity at 70.5 h was found to be 2.06%.

With `O=C(c1ccc2[nH]ccc2c1)N1CCn2cnc(COCC3CC3)c2C1`, the cytotoxicity at 70.5 h was -4.35%.

Regarding `CCC1=N[C@@]2(CC[C@@H]3CN(S(=O)(=O)N(C)C)C[C@@H]32)C(=O)N1CC(C)C`, the cytotoxicity at 70.5 h was -3.81%.

Turning to `CCc1ccc(NC(=O)N2C[C@H]3C[C@H](C(=O)NC)[C@@H](C2)O3)cc1`, the cytotoxicity at 70.5 h amounted to 3.53%.

In the case of `CN(C)Cc1nn(C)c2c1CCN(S(=O)(=O)c1cccs1)C2`, the cytotoxicity at 70.5 h turned out to be 1.38%.

As for `CCO[C@@H]1CO[C@@]2(CCCN(C(=O)COc3ccccc3OC)C2)C1`, the cytotoxicity at 70.5 h is -9.81%.

On to `Cn1ncc2c1C(COCC1CC1)CN(Cc1nccs1)C2` (stereo not given), for which the cytotoxicity at 70.5 h turned out to be 6.16%.

Take `CO[C@@H]1CC[C@H]2[C@H]1OCCN2C(=O)c1ccc(C)o1`: the cytotoxicity at 70.5 h was 46.9%.

Regarding `Cc1ccsc1C(=O)N1CC(C(=O)NCC2CC2)C2(CCOCC2)C1` (stereo not given), the cytotoxicity at 70.5 h came out at 7.19%.

Take `Cc1ccsc1C(=O)N1CC(C(=O)N2CCOCC2)C2(CCOCC2)C1` (stereo not given): the cytotoxicity at 70.5 h is 24.8%.

On to `O=C(c1cscn1)N1C[C@@H]2C[C@@H](c3nnc(C4CC4)o3)O[C@@H]2C1`, for which the cytotoxicity at 70.5 h was -8.28%.

As for `Cc1ncsc1CN1CC[C@H]2C[C@H](c3ccncn3)O[C@@H]2C1`, the cytotoxicity at 70.5 h was -12.4%.

Consider `O=C(CC1CC1)N1CCn2cc(Cn3cncn3)nc2C1`, for which the cytotoxicity at 70.5 h was -18.5%.

Regarding `COCC(=O)N1Cc2cn(C)nc2C(COc2cccnc2)C1` (stereo not given), the cytotoxicity at 70.5 h was 9.02%.

Turning to `CCOc1cc(C(=O)n2cccn2)cc(OCC)c1OCC`, the cytotoxicity at 70.5 h is -6.27%.

`Cc1c(Br)cnn1CC(=O)Nc1ccon1`: the cytotoxicity at 70.5 h is -7.55%.

As to `Cc1cc(NC(=O)Cn2ncc(Br)c2C)no1`, the cytotoxicity at 70.5 h was -2.58%.

`O=C(c1n[nH]cc1Cl)N1CCSCC1`: the cytotoxicity at 70.5 h is -9.46%.

Regarding `CCCN1C(=O)c2ccccc2C1OC` (stereo not given), the cytotoxicity at 70.5 h was -6.48%.

On to `CNC(=O)C1CCN(S(C)(=O)=O)CC1`, for which the cytotoxicity at 70.5 h is -10.2%.

As to `O=C(O)c1cccc2c(Br)cccc12`, the cytotoxicity at 70.5 h was -0.692%.

For the compound `Cc1ccc(CNC(=O)CCC(=O)NCCC(C)C)o1`, the cytotoxicity at 70.5 h worked out at 18.9%.

On to `O=C(CCC(=O)NCc1cccc(Br)c1)NCCN1CCCC1`, for which the cytotoxicity at 70.5 h was determined as 23.6%.

On to `CN(C)c1nc2n(c(=O)n1)CCN2C(=O)Nc1ccc(Cl)cc1`, for which the cytotoxicity at 70.5 h was -6.29%.

As to `CN(C)c1nc2n(c(=O)n1)CCN2C(=O)Nc1ccc(Cl)c(Cl)c1`, the cytotoxicity at 70.5 h is -10.9%.

Regarding `O=C(COCC(=O)N(c1ccccc1)c1ccccc1)N1CCOCC1`, the cytotoxicity at 70.5 h is -5.79%.

As for `O=C(c1ccnn1COc1ccc(Cl)cc1)N1CCCC1`, the cytotoxicity at 70.5 h is -1.93%.

Turning to `CCNc1nc(N(C)C)nc(-n2cnc(SC)n2)n1`, the cytotoxicity at 70.5 h was -12%.

Take `CSc1ncn(-c2nc(NC3CC3)nc(N(C)C)n2)n1`: the cytotoxicity at 70.5 h was -25.9%.

Regarding `CCN(c1ccccc1C(=O)O)S(=O)(=O)c1cccc2cccnc12`, the cytotoxicity at 70.5 h was 1.89%.

As for `CCc1oc2ccc(NS(=O)(=O)CC)cc2c1C(=O)OC`, the cytotoxicity at 70.5 h was -5.49%.

As to `Cc1cc(N2CCC(Cc3cccnc3)CC2)ncn1`, the cytotoxicity at 70.5 h amounted to 23.3%.

As for `Cc1cc(N2CCC(Cc3ncccn3)C2)ncn1` (stereo not given), the cytotoxicity at 70.5 h was -6.02%.

`NC(=O)c1cn[nH]c1C1CCCN1C(=O)c1ccccn1` (stereo not given): the cytotoxicity at 70.5 h is -4.23%.

Turning to `O=C(CO)N1CCCC(c2cc(C(F)(F)F)[nH]n2)C1` (stereo not given), the cytotoxicity at 70.5 h is -2.3%.

Take `Cc1n[nH]c(C)c1S(=O)(=O)N1CCC(Oc2ccccc2F)CC1`: the cytotoxicity at 70.5 h is -7.37%.

As to `Nc1cc(-c2cncnc2C2CCN(C(=O)c3ccccc3)C2)ccn1` (stereo not given), the cytotoxicity at 70.5 h stood at 2.08%.

For `O=C(NCC1(O)COCCN(Cc2cccc(O)c2)C1)c1cscn1` (stereo not given), the cytotoxicity at 70.5 h was -7.81%.

Turning to `Cc1cc(-c2ccc(=O)n(C3CCN(S(=O)(=O)N(C)C)CC3)n2)c(C)o1`, the cytotoxicity at 70.5 h stood at 3.38%.

For `CCS(=O)(=O)N1CCC(n2nc(-c3cc(C)oc3C)ccc2=O)CC1`, the cytotoxicity at 70.5 h was 24.5%.

`CCN1CCCC1CNCc1cc2ccccc2[nH]c1=O` (stereo not given): the cytotoxicity at 70.5 h was -5.02%.

As for `COc1cccc(-c2nccc(C3CCCN3C)n2)c1` (stereo not given), the cytotoxicity at 70.5 h worked out at 26.3%.

In the case of `CN1CCCCC1c1ccc(-n2ccnc2)nc1` (stereo not given), the cytotoxicity at 70.5 h is -2.08%.

Turning to `Cc1cc(C)nc(C2CCCN2C(=O)c2cnco2)n1` (stereo not given), the cytotoxicity at 70.5 h was 33.6%.

As for `COCCN1CCCC1c1ccnc(-c2ccccc2)n1` (stereo not given), the cytotoxicity at 70.5 h was -4.49%.

As for `CCn1cc(S(=O)(=O)N2CCCC3(CC=CNC3=O)C2)cn1` (stereo not given), the cytotoxicity at 70.5 h was -0.325%.

`COc1ccccc1C1(O)CCCN(C(=O)c2csc(C(C)=O)c2)C1` (stereo not given): the cytotoxicity at 70.5 h is -1.27%.

Regarding `CCN1CCc2cc(-c3cncn3CCNC3CCS(=O)(=O)C3)ccc21` (stereo not given), the cytotoxicity at 70.5 h was -5.23%.

Turning to `NC[C@H]1CC[C@H](c2c(C(N)=O)sc3ccccc32)CC1`, the cytotoxicity at 70.5 h is -3.54%.

With `CC(C)(C)C(=O)NC(c1nccs1)C1CCN(CC2CCCCC2)CC1` (stereo not given), the cytotoxicity at 70.5 h was determined as 33.7%.

For the compound `CC(=O)NCC(=O)N1CCn2cc(CN3CCCCC3)nc2C1`, the cytotoxicity at 70.5 h was -1.68%.

In the case of `O=C(C1CC1)N1CCC2(CCN(Cc3cccc(F)c3)CC2)CC1`, the cytotoxicity at 70.5 h was -0.144%.

As for `CC(=O)N1[C@H](Cn2cncn2)C[C@@H]2CN(c3ncc(F)cn3)CC[C@@H]21`, the cytotoxicity at 70.5 h was -0.528%.

Regarding `O=C([C@H]1COC[C@H]2CN(C3CCOCC3)C[C@H]21)N1CCCO1`, the cytotoxicity at 70.5 h was -1.26%.

For `O=C(c1ccco1)N1CCCC2(CN(Cc3ccsc3)CCO2)C1` (stereo not given), the cytotoxicity at 70.5 h is -5.26%.

For the compound `O=C(c1ccco1)N1CCCC2(CN(Cc3cccs3)CCO2)C1` (stereo not given), the cytotoxicity at 70.5 h was 1.5%.

Turning to `COCC(=O)N1CCO[C@H]2[C@H](OCc3cccnc3)CC[C@@H]21`, the cytotoxicity at 70.5 h was determined as 1.22%.

In the case of `CN1CCN(C(=O)NC2CCCC2)Cc2cccnc21`, the cytotoxicity at 70.5 h is -4.32%.

`Cc1nc(CN2CCOCC3(CCCN(c4cnccn4)C3)C2)cs1` (stereo not given): the cytotoxicity at 70.5 h was -2.38%.

As to `O=C(NC[C@]12COC[C@H]1CN(Cc1nccs1)C2)N1CCCC1`, the cytotoxicity at 70.5 h is -13.4%.

`O=C(C[C@@H]1COC[C@H]2CN(Cc3ccc(F)cc3)C[C@@H]12)N1CCCCO1`: the cytotoxicity at 70.5 h was -14.5%.

On to `COC1COC2(CCN(Cc3ccccc3Cl)CC2)C1` (stereo not given), for which the cytotoxicity at 70.5 h is -14.5%.

In the case of `O=C1CC[C@H]2[C@H](CCN2C(=O)C2CCOCC2)N1Cc1ccncc1`, the cytotoxicity at 70.5 h is -15.6%.

`CNC(=O)[C@@]12CCCN(c3ncccn3)[C@@H]1CN(C)C2`: the cytotoxicity at 70.5 h came to 29.8%.

With `Cc1ncsc1CN1CC[C@H]2OCC[C@@]2(C(=O)NC(C)C)C1`, the cytotoxicity at 70.5 h is 33.4%.

Consider `Cc1ccc(C(=O)N2CCn3cc(CN4CCCCC4)nc3C2)o1`, for which the cytotoxicity at 70.5 h amounted to 35.2%.

Turning to `CNC(=O)[C@H]1C[C@H]2OCC[C@H]2N(Cc2ccc(C)o2)C1`, the cytotoxicity at 70.5 h worked out at 3.85%.

As to `Cc1nnc(N2C[C@H](C(=O)NCC3CC3)[C@@H]3CCO[C@@H]3C2)s1`, the cytotoxicity at 70.5 h was -4%.

For `CCOCC1CN(C(=O)c2cccn2C)Cc2cnn(CC3CC3)c21` (stereo not given), the cytotoxicity at 70.5 h was 0.525%.

For the compound `O=C(c1ncccn1)N1C[C@H]2CCC[C@@]2(COCc2ccncc2)C1`, the cytotoxicity at 70.5 h is 9.21%.

With `Cn1cnc2c1C(COCC1CC1)CN(C(=O)Cc1ccsc1)C2` (stereo not given), the cytotoxicity at 70.5 h was -3.95%.

Regarding `CN(C)S(=O)(=O)N1C[C@@H](Oc2ccccn2)[C@H]2OCCC[C@H]21`, the cytotoxicity at 70.5 h was -7.76%.

Consider `Cn1nc(C#N)c2c1CN(C(=O)c1cccnc1)CCC2`, for which the cytotoxicity at 70.5 h was 29.4%.

As for `Cc1ccc(N2CC3(COCCN(Cc4nccs4)C3)OCC2=O)s1` (stereo not given), the cytotoxicity at 70.5 h is -10.7%.

Consider `CCOC(=O)[C@]12CCCN(Cc3nccs3)C[C@H]1CN(C(C)=O)C2`, for which the cytotoxicity at 70.5 h was -13.3%.

With `c1ccc(Cn2cc3c(n2)C(COCC2CC2)OCC3)nc1` (stereo not given), the cytotoxicity at 70.5 h came to 8.53%.

For `CN(C)S(=O)(=O)N1CCC[C@]2(C[C@@H](Oc3ccccn3)CO2)C1`, the cytotoxicity at 70.5 h was -17.2%.

Turning to `CN(C)[C@@H]1CCN(c2ncc(F)cn2)[C@H]1Cc1cccnc1`, the cytotoxicity at 70.5 h is 17.3%.

For `Cc1cnc(N2CC[C@H]3[C@@H]2CCC(=O)N3c2cccnc2)nc1`, the cytotoxicity at 70.5 h is -2.59%.

Regarding `CC(C)N1CCOCC2(CN(Cc3nccs3)CCO2)C1` (stereo not given), the cytotoxicity at 70.5 h was -0.368%.

Take `c1ccc(CO[C@@H]2CO[C@@]3(CCN(Cc4ccccn4)C3)C2)nc1`: the cytotoxicity at 70.5 h was -16%.

`CC(C)N1CCOCC2(CN(Cc3ccccn3)CCO2)C1` (stereo not given): the cytotoxicity at 70.5 h was -2.31%.

For the origin of these results see ChEMBL document CHEMBL3507680, “University of Dundee, Gates Library screen for HepG2 cell viability”.
